“And” between values parts separate entries of the source, which are not always exact repeats. Equal values may be shown once.
Experiments:
[1] = 298.15 K, 101 kPa, Liquid; for speed of sound: Sing-around technique in a fixed-path interferometer; for mass density: Vibrating tube method
[2] = an = ratio of the nth substance listed, in mol/kg; details: 298.15 K, 101 kPa, Liquid; for speed of sound: Sing-around technique in a fixed-path interferometer; for mass density: Vibrating tube method

CC(=O)N(C)C [N,N-dimethylethanamide]
[1]
Details | mass density | speed of sound [m/s]
– | 936.22 kg/m3 [middle of 9 runs] | 1455.4

C[S+](C)[O-] [dimethyl sulfoxide]
[1]
Details | mass density | speed of sound [m/s]
– | 1095.19 kg/m3 and 1095.2 kg/m3 and 1095.19 kg/m3 | 1484.1

[Ni+2].[O-][Cl+3]([O-])([O-])[O-].[O-][Cl+3]([O-])([O-])[O-] [nickel perchlorate] + CC(=O)N(C)C
[2]
Details | mass density [kg/m3] | speed of sound [m/s]
a1 = 0.03452 | 943.693 | 1460.5
a1 = 0.06515 | 950.677 | 1464.3
a1 = 0.096 | 957.709 | 1468.2
a1 = 0.1279 | 964.983 | 1472.3
a1 = 0.1604 | 972.395 | 1476.5
a1 = 0.1898 | 979.089 | 1480.4
a1 = 0.2198 | 985.93 | 1484.6
a1 = 0.2504 | 992.904 | 1489

[Ni+2].[O-][Cl+3]([O-])([O-])[O-].[O-][Cl+3]([O-])([O-])[O-] [nickel perchlorate] + C[S+](C)[O-]
[2]
Details | mass density [kg/m3] | speed of sound [m/s]
a1 = 0.01259 | 1097.89 | 1485
a1 = 0.02515 | 1100.6 | 1485.8
a1 = 0.03816 | 1103.4 | 1486.7
a1 = 0.051 | 1106.18 | 1487.5
a1 = 0.06341 | 1108.88 | 1488.4
a1 = 0.07675 | 1111.79 | 1489.2
a1 = 0.08797 | 1114.24 | 1490
a1 = 0.1004 | 1116.98 | 1491
a1 = 0.1125 | 1119.67 | 1491.7
a1 = 0.1251 | 1122.43 | 1492.6

[Cl-].[Cl-].[Zn+2] [zinc chloride] + CC(=O)N(C)C
[2]
Details | mass density [kg/m3] | speed of sound [m/s]
a1 = 0.05996 | 942.244 | 1456.9
a1 = 0.1117 | 947.615 | 1457.9
a1 = 0.1487 | 951.455 | 1458.7
a1 = 0.1875 | 955.473 | 1459.5
a1 = 0.223 | 959.152 | 1460.3
a1 = 0.2595 | 962.944 | 1461.2
a1 = 0.2955 | 966.681 | 1462.1
a1 = 0.3148 | 968.679 | 1462.5

[Cl-].[Cl-].[Zn+2] [zinc chloride] + C[S+](C)[O-]
[2]
Details | mass density [kg/m3] | speed of sound [m/s]
a1 = 0.05319 | 1100.61 | 1484.1
a1 = 0.0712 | 1102.49 | 1484.2
a1 = 0.0892 | 1104.34 | 1484.5
a1 = 0.107 | 1106.22 | 1484.8
a1 = 0.1251 | 1108.12 | 1485.2
a1 = 0.1517 | 1110.9 | 1485.9
a1 = 0.1776 | 1113.65 | 1486.6

[O-][Cl+3]([O-])([O-])[O-].[O-][Cl+3]([O-])([O-])[O-].[Zn+2] [zinc perchlorate] + CC(=O)N(C)C
[2]
Details | mass density [kg/m3] | speed of sound [m/s]
a1 = 0.04286 | 945.119 | 1460.8
a1 = 0.08313 | 954.115 | 1464.9
a1 = 0.1231 | 963.055 | 1469
a1 = 0.1625 | 971.852 | 1473.2
a1 = 0.2013 | 980.513 | 1477.5
a1 = 0.2396 | 989.07 | 1481.9
a1 = 0.2771 | 997.457 | 1486.3
a1 = 0.3148 | 1005.87 | 1490.8

[O-][Cl+3]([O-])([O-])[O-].[O-][Cl+3]([O-])([O-])[O-].[Zn+2] [zinc perchlorate] + C[S+](C)[O-]
[2]
Details | mass density [kg/m3] | speed of sound [m/s]
a1 = 0.02918 | 1101.58 | 1485.7
a1 = 0.03465 | 1102.78 | 1486
a1 = 0.05104 | 1106.39 | 1486.9
a1 = 0.06794 | 1110.13 | 1487.8
a1 = 0.08574 | 1114.1 | 1488.8
a1 = 0.1022 | 1117.8 | 1489.7
a1 = 0.119 | 1121.58 | 1490.7
a1 = 0.1435 | 1127.14 | 1492.2
a1 = 0.1685 | 1132.85 | 1493.7

From the NIST ThermoML archive (doi:10.1021/je8004134)
